Assay results as given in PubChem BioAssay AID248 (DTP/NCI, 2004).
Toxic doses and inconclusive results are not listed. Rule as the data show it: active = T/C of 150% or more; inactive = T/C below 125%.

Test system: L1210 leukemia ip in BDF1 mice, survival T/C
Experiment: NCI In Vivo Anticancer Drug Screen. Data for tumor model L1210 Leukemia (intraperitoneal) in B6D2F1 (BDF1) mice
Details: endpoint: mean survival time, higher = longer survival
In short: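 Mice bearing the transplanted tumor received compound or vehicle. Survival of the treated group was divided by that of the vehicle-treated control group to give the ratio.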

[1] = dose: 100.0 mg/kg/injection, schedule: Q04DX002 (ip), vehicle: Klucel (hydroxypropylcellulose) (HPC)
[2] = dose: 200.0 mg/kg/injection, schedule: Q04DX002 (ip), vehicle: Klucel (hydroxypropylcellulose) (HPC)
[3] = dose: 400.0 mg/kg/injection, schedule: Q04DX002 (ip), vehicle: Klucel (hydroxypropylcellulose) (HPC)
[4] = dose: 100.0 mg/kg/injection, schedule: Q01DX001 (ip), vehicle: Klucel (hydroxypropylcellulose) (HPC)
[5] = dose: 100.0 mg/kg/injection, schedule: Q04DX003 (ip), vehicle: Klucel (hydroxypropylcellulose) (HPC)
[6] = dose: 200.0 mg/kg/injection, schedule: Q01DX001 (ip), vehicle: Klucel (hydroxypropylcellulose) (HPC)
[7] = dose: 200.0 mg/kg/injection, schedule: Q04DX003 (ip), vehicle: Klucel (hydroxypropylcellulose) (HPC)
[8] = dose: 400.0 mg/kg/injection, schedule: Q01DX001 (ip), vehicle: Klucel (hydroxypropylcellulose) (HPC)
[9] = dose: 400.0 mg/kg/injection, schedule: Q04DX003 (ip), vehicle: Klucel (hydroxypropylcellulose) (HPC)
[10] = dose: 50.0 mg/kg/injection, schedule: Q01DX001 (ip), vehicle: carboxymethylcellulose (CMC)
[11] = dose: 100.0 mg/kg/injection, schedule: Q01DX001 (ip), vehicle: carboxymethylcellulose (CMC)
[12] = dose: 200.0 mg/kg/injection, schedule: Q01DX001 (ip), vehicle: carboxymethylcellulose (CMC)
[13] = dose: 400.0 mg/kg/injection, schedule: Q01DX001 (ip), vehicle: carboxymethylcellulose (CMC)
[14] = dose: 100.0 mg/kg/injection, schedule: Q01DX009 (ip), vehicle: Klucel (hydroxypropylcellulose) (HPC)
[15] = dose: 200.0 mg/kg/injection, schedule: Q01DX009 (ip), vehicle: Klucel (hydroxypropylcellulose) (HPC)
[16] = dose: 400.0 mg/kg/injection, schedule: Q01DX009 (ip), vehicle: Klucel (hydroxypropylcellulose) (HPC)
[17] = dose: 100.0 mg/kg/injection, schedule: Q04DX003 (ip), vehicle: saline with Tween-80
[18] = dose: 200.0 mg/kg/injection, schedule: Q04DX003 (ip), vehicle: saline with Tween-80

Measured: T/C

O=[N+]([O-])/C=C/c1ccc(F)cc1
inactive: dose: 75.0 mg/kg/injection, schedule: Q01DX001 (ip), vehicle: alcohol 100 % of control

O=S(=O)(CBr)C1C2C=CC(C2)C1c1ccccc1 (stereo not given)
inactive: [1] 106 % of control | [2] 106 % of control | [3] 97 % of control

C[CH2][Sn]([CH2]C)([CH2]C)[S]Cc1ccccc1
inactive: dose: 1.56 mg/kg/injection, schedule: Q01DX009 (ip), vehicle: saline with Tween-80 97 % of control | dose: 3.13 mg/kg/injection, schedule: Q01DX009 (ip), vehicle: saline with Tween-80 95 % of control | dose: 6.25 mg/kg/injection, schedule: Q01DX009 (ip), vehicle: saline with Tween-80 87 % of control

O=C(NCC(O)CCl)c1ccc([N+](=O)[O-])cc1 (stereo not given)
inactive: [4] 95 % of control | [5] 97 % of control | [6] 103 % of control | [7] 105 % of control | [8] 95 % of control | [9] 92 % of control

COC(=O)c1cccc(OC)c1
inactive: [10] 102 % of control | [11] 98 % of control | [12] 104 % of control | [13] 93 % of control

O=C1C=CC(=NBr)C=C1
inactive: dose: 12.5 mg/kg/injection, schedule: Q01DX009 (ip), vehicle: Klucel (hydroxypropylcellulose) (HPC) 89 % of control | dose: 25.0 mg/kg/injection, schedule: Q01DX009 (ip), vehicle: Klucel (hydroxypropylcellulose) (HPC) 92 % of control | dose: 50.0 mg/kg/injection, schedule: Q01DX009 (ip), vehicle: Klucel (hydroxypropylcellulose) (HPC) 89 % of control

CCOC(=O)C1(C(=O)OCC)CC(=O)c2c(OC)ccc(OC)c2C1
inactive: dose: 12.5 mg/kg/injection, schedule: Q04DX003 (ip), vehicle: Klucel (hydroxypropylcellulose) (HPC) 94 % of control | dose: 25.0 mg/kg/injection, schedule: Q04DX003 (ip), vehicle: Klucel (hydroxypropylcellulose) (HPC) 105 % of control | dose: 50.0 mg/kg/injection, schedule: Q04DX003 (ip), vehicle: Klucel (hydroxypropylcellulose) (HPC) 98 % of control | [4] 98 % of control | [5] 95 % of control | [6] 98 % of control | [7] 103 % of control | [8] 106 % of control | [9] 111 % of control

COc1cc([N+](=O)[O-])ccc1NC(=O)Nc1cc(Cl)c(Cl)cc1C
inactive: [14] 94 % of control | [15] 105 % of control | [16] 91 % of control

Cc1nc2c(O)cccc2cc1CO
inactive: [14] 95 % of control | [15] 93 % of control

O=C1c2cccc3c([N+](=O)[O-])ccc(c23)C(=O)N1CCc1ccccn1
inactive: dose: 100.0 mg/kg/injection, schedule: Q04DX002 (ip), vehicle: saline with Tween-80 106 % of control | dose: 200.0 mg/kg/injection, schedule: Q04DX002 (ip), vehicle: saline with Tween-80 95 % of control | dose: 400.0 mg/kg/injection, schedule: Q04DX002 (ip), vehicle: saline with Tween-80 103 % of control

CSc1cccc[n+]1C
inactive: dose: 75.0 mg/kg/injection, schedule: Q01DX001 (ip), vehicle: saline 104 % of control

COc1ccc(N=C(C)CC(C)=O)cc1
inactive: [4] 101 % of control | [14] 108 % of control | [6] 103 % of control | [15] 97 % of control | [8] 101 % of control | [16] 102 % of control

c1ccc([P+](CCN2CCC([P+](c3ccccc3)(c3ccccc3)c3ccccc3)=N2)(c2ccccc2)c2ccccc2)cc1
inactive: dose: 1.56 mg/kg/injection, schedule: Q04DX003 (ip), vehicle: saline 103 % of control | dose: 3.12 mg/kg/injection, schedule: Q04DX003 (ip), vehicle: saline 105 % of control

C/C(=N\N=C(/C)c1ccc2ccccc2c1)c1ccc2ccccc2c1
inactive: [17] 94 % of control | [18] 91 % of control

COc1ccc(CCC(C)=O)cc1
inactive: [14] 96 % of control | [5] 89 % of control | [15] 105 % of control | [7] 102 % of control | [16] 96 % of control | [9] 98 % of control

COc1ccc(OC(=O)Nc2ccccc2[N+](=O)[O-])cc1
inactive: [17] 106 % of control | [18] 94 % of control | dose: 400.0 mg/kg/injection, schedule: Q04DX003 (ip), vehicle: saline with Tween-80 95 % of control

CC1=CC(=O)NP(=O)(OC2CCCCC2)N1 (stereo not given)
inactive: dose: 100.0 mg/kg/injection, schedule: Q01DX005 (ip), vehicle: sodium bicarbonate 91 % of control

O=S1(=O)CCC(N(/N=C/c2c[nH]c3ccccc23)c2ccccc2)C1 (stereo not given)
inactive: [1] 103 % of control | [2] 110 % of control | [3] 100 % of control

CCN(CC)CCCC(C)Nc1ccnc2c1ccc1ccccc12 (stereo not given)
inactive: dose: 50.0 mg/kg/injection, schedule: Q01DX001 (ip), vehicle: saline 98 % of control | dose: 100.0 mg/kg/injection, schedule: Q01DX001 (ip), vehicle: saline 101 % of control | dose: 200.0 mg/kg/injection, schedule: Q01DX001 (ip), vehicle: saline 106 % of control | dose: 400.0 mg/kg/injection, schedule: Q01DX001 (ip), vehicle: saline 112 % of control

[NH-]C(CCC(N)=O)C(=O)O.[NH-]C(CCC(N)=O)C(=O)O.[Pd+2] (stereo not given)
inactive: dose: 100.0 mg/kg/injection, schedule: Q04DX002 (ip), vehicle: saline 102 % of control | dose: 100.0 mg/kg/injection, schedule: Q04DX003 (ip), vehicle: saline 98 % of control | dose: 200.0 mg/kg/injection, schedule: Q04DX002 (ip), vehicle: saline 102 % of control | dose: 200.0 mg/kg/injection, schedule: Q04DX003 (ip), vehicle: saline 92 % of control | dose: 400.0 mg/kg/injection, schedule: Q04DX002 (ip), vehicle: saline 102 % of control

O=C(O)c1ccccc1N=CC(=O)c1c2ccccc2cc2ccccc12
inactive: dose: 12.5 mg/kg/injection, schedule: Q04DX002 (ip), vehicle: Klucel (hydroxypropylcellulose) (HPC) 105 % of control | dose: 25.0 mg/kg/injection, schedule: Q04DX002 (ip), vehicle: Klucel (hydroxypropylcellulose) (HPC) 105 % of control | dose: 50.0 mg/kg/injection, schedule: Q04DX002 (ip), vehicle: Klucel (hydroxypropylcellulose) (HPC) 102 % of control

NC(=S)NNC(=O)CN1C(=O)c2ccccc2C1=O
inactive: [4] 102 % of control | [6] 105 % of control | [8] 102 % of control

O=C(CCCC(=O)OCC(F)(F)C(F)(F)C(F)(F)C(F)F)OCC(F)(F)C(F)(F)C(F)(F)C(F)F
inactive: [10] 102 % of control | [11] 100 % of control | [12] 100 % of control | [13] 100 % of control
